Where two headings read alike, the source gives them in different places.

In experiment [1] the target is T1, cholesterol esterase (EC 3.1.1.13), CEH (Bos taurus, UniProt P30122).
T1 construct: purchased Sigma Company, St. Louis, Mo; C-1892; host or cells: bovine pancreas
T1 sequence (P30122 19-597): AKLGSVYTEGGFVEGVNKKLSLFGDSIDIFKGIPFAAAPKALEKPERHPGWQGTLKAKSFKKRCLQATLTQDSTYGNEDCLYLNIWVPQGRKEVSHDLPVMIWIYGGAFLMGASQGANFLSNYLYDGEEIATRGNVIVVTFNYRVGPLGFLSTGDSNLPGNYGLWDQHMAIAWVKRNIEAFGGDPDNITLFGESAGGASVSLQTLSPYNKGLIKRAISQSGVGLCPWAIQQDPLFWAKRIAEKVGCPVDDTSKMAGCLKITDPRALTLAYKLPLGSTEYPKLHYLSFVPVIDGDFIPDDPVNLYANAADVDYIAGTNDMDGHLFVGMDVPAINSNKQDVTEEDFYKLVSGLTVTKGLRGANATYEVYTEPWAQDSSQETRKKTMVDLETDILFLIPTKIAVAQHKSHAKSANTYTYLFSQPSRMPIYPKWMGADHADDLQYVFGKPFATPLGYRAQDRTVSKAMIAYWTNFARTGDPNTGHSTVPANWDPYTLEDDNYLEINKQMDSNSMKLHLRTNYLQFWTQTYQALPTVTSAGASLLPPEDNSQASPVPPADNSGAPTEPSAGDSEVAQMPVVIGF
Briefly: In vitro inhibition of cholesteryl ester formation by cholesterol esterase (CEH). In kind it is biochemical. The protocol: In Vitro Assay: The ability of the compounds of this invention to inhibit the formation of cholesteryl esters and thereby interfere with and prevent assimilation of cholesterol into the lymphatic system and ultimately the blood stream was established by incubating the compounds at 37° C. with a mixture of cholesterol and oleic acid in the presence of buffered cholesterol esterase [(EC 3.1.1.13) Sigma Company, St. Louis, Mo., U.S.A., No. C-1892, from bovine pancreas] and measuring the amount of ester formed, according to the procedure of Field, J. of Lipid Research, 25, 389 (1984).

The test system of experiment [2] is absorption of 14C-cholesterol. Description: In vivo cholesterol absorption, serum radioactivity after oral [4-14C] cholesterol. The following applies: normal rat, 6 hr, vs control. Set-up: species or system normal rats. Here is the method: In Vivo Assay: The in vivo cholesterol absorption studies were conducted in normal rats by oral administration of the compound being tested in propylene glycol and olive oil followed by oral administration of [4-^14 C] cholesterol in propylene glycol and olive oil, otherwise following the procedure of Cayen et al., J. Lipid Res. 20, 162 (1979). The serum radioactivity was measured at six hours after dosing. The results of this study are reported in Table I as percent decrease compared to control.

Setting [3] is: IC25 instead of IC50; 37° C.; cholesterol + oleic acid; bovine pancreas enzyme.
Where [4] appears, read: 37° C.; cholesterol + oleic acid; bovine pancreas enzyme; read-out: In Vitro Results IC50 CEH.

The term IC50 denotes the concentration needed to halve the response being measured. Regarding `CCCCCCNC(=O)OC1CCN(C(=O)OCCCCCCNC(=O)Oc2ccc(Oc3ccccc3)cc2)CC1` [Example 6, 4-(Hexylcarbamoyloxy)-piperidine-1-carboxylic acid 6-[(4-phenoxy-phenyl)-oxycarbonylamino]-hexyl ester], in experiment [1] (read-out: In Vitro Results IC50 CEH; 37° C.; cholesterol + oleic acid; bovine pancreas enzyme), the IC50 is 1100 nM. Also, the “Effect on Absorption of 14C-Chol, % Decrease” value (from here on “Effect … % Decrease”) in experiment [2] (3 mg/kg) is recorded as 49%.

Broadly, the IC25 is the concentration at which the effect reaches the 25% level. For `O=C(NCCCCCCOC(=O)N1CCC(OC(=O)N2CCC3(CCCC3)CC2)CC1)Oc1ccc(Oc2ccccc2)cc1` [Example 7, 8-Aza-spiro[4.5]decane-8-carboxylic acid 1-{6-[(4-phenoxy-phenyl)-oxycarbonylamino]-hexyloxycarbonyl}-piperidin-4-yl ester], the IC25 in experiment [1] (setting [3]) turned out to be 200 nM. Also, in experiment [2] (10 mg/kg), the “Effect … % Decrease” value is on record as 50%.

For `CCCCCCCCCCNC(=O)OC1CCN(C(=O)OCCCCCCNC(=O)Oc2ccc(Oc3ccccc3)cc2)CC1` [Example 8, 4-(Decylcarbamoyloxy)-piperidine-1-carboxylic acid 6-[(4-phenoxy-phenyl)-oxycarbonylamino]-hexyl ester], in experiment [1] (setting [4]), the IC50 worked out at 3000 nM. For the same compound, the “Effect … % Decrease” value in experiment [2] (10 mg/kg) is 43%.

On to `O=C(NCCCCCCOC(=O)N1CCC(OC(=O)NC2CCCCC2)CC1)Oc1ccc(Oc2ccccc2)cc1` [Example 9, 4-(Cyclohexylcarbamoyloxy)-piperidine-1-carboxylic acid 6-[(4-phenoxy-phenyl)-oxycarbonylamino]-hexyl ester], for which the IC25 in experiment [1] (setting [3]) was found to be 300 nM. For the same compound, the “Effect … % Decrease” value in experiment [2] (10 mg/kg) is on record as 46%.

On to `O=C(NCCCCCCOC(=O)N1CCC(OC(=O)NCCCCc2ccccc2)CC1)Oc1ccc(Oc2ccccc2)cc1` [Example 10, 4-(4-Phenyl-butyl-carbamoyloxy)-piperidine-1-carboxylic acid 6-[(4-phenoxy-phenyl)-oxycarbonylamino]-hexyl ester], for which the IC25 in experiment [1] (setting [3]) came to 300 nM. Moreover, in experiment [2] (10 mg/kg), the “Effect … % Decrease” value is given as 61%.

`O=C(NCCCCCCOC(=O)N1CCC(OC(=O)N2CCCCC2)CC1)Oc1ccc(Oc2ccccc2)cc1` [Example 11, 4-(Piperidine-1-carbonyloxy)-piperidine-1-carboxylic acid 6-[(4-phenoxy-phenyl)oxycarbonylamino]-hexyl ester]: the IC50 in experiment [1] (setting [4]) is 5900 nM. Further, in experiment [2] (10 mg/kg), the “Effect … % Decrease” value is 81%.

The values are drawn from patent US5527804A, “4-carbamoyloxy-piperidine-1-carboxylic acid esters: inhibitors or cholesterol absorption” (American Home Products Corporation, priority 1994, dated 1996).
